Laboratory results taken from patent US3963707A, “Novel N-nitroso compounds, compositions containing such compounds, processes for their preparation and methods of treatment therewith, and novel intermediates” (Aktiebolaget Leo, priority 1973, dated 1976).

Legend:
[1] = system: Walker carcinosarcoma 256; test: Walker carcinosarcoma 256 test; assay type: in vivo, Sprague Dawley rats; details: for Lethality: died/used animals
Description: (§1) The experimental design and the interpretation of the results have been in accordance with the standards set by the CCNSC (Cancer Chemotherapy Reports, January 1959 and December 1962), and by the DR&D (Cancer Chemotherapy Reports, September 1972, Vol. 3, No. 2).
(§2) The way of administration is by the intraperitoneal route (i.p.) in each case.
Walker carcinosarcoma 256
Experimental animals: Sprague Dawley rats.
Tumour implant: Tumour pieces with 2-4 mm diameter, subcutaneously.
Therapy: Daily injections i.p. for 5 days starting on the day following implantation.
Termination: The animals are killed on the 9th day.
Evaluation: Weights of tumours of test animals are compared with those of control animals. The differences, in per cent of weights of tumours of control animals, give per cent tumour inhibition.
The lethality is given as the number of animals which died in the experiment/the number of animals used in the experiments.

[2] = system: Ehrlich ascites tumour, ELD hyperdiploid (46 chromosomes); test: Ehrlich ascites tumour test (LD50, ED50, therapeutic index); assay type: in vivo, SPF NMRI mice; details: additional compounds, result in words
Description: The high activity against tumours is further illustrated in these experiments by comparisons with known antitumour agents used in the therapy. The therapeutic indexes (T.I.), i.e. the ratios LD50/ED50, are in all comparisons much more favourable with the compounds of the present invention.
LD50 is the dose that caused a 50 percent lethality of the animals, ED50 is the dose that caused a 50 percent reduction of tumour size.
as §1, §2
Ehrlich ascites tumour, ELD hyperdiploid (46 chromosomes)
Experimental animals: SPF NMRI mice.
Tumour implant: 2 × 10^6 tumour cells i.p.
(§3) Therapy: One injection i.p. on the day following implantation.
Termination: The animals are killed on the 8th day.
Evaluation: Weights of tumours of test animals compared with those of control animals.

Hepatoma AH 130 = test: in vivo; design: species or system SPF Wistar rats
Summary of the method: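 SPF Wistar rats were implanted i.p. with 5 × 10^6 AH 130 cells and given one i.p. dose the next day. On day 8 they were killed and tumour weights were compared with controls. ED50 is the dose halving tumour size, LD50 the 50% lethal dose, and T.I. is LD50/ED50.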

[3] = system: Lymphatic leukemia L 1210; test: Lymphatic leukemia L 1210 test; assay type: in vivo, CDF1 (C3H×DBA/2)F1 mice; details: dose of 1000 mg/kg, comparative compounds
Description: as §1, §2
Lymphatic leukemia L 1210
Experimental animals: CDF1 (C3H×DBA/2)F1 mice.
Tumour implant: 10^5 tumour cells i.p.
as §3
Evaluation: a) The survival time of the test animals (t) expressed as the percentage of that of control animals (c).
b. Weight change in the test animals (T) compared with that of the control animals (c) up to the 5th day.
c. The mortality rate must not exceed 35% in the test animals on the 5th day of therapy.

[4] = additional compounds, result in words
[5] = doses 1 × 250, 1 × 500 and 1 × 1000 mg/kg respectively

SMILES | anti-tumor activity [2] | anti-tumor activity (Hepatoma AH 130; [4]) | other results
C[C@]12CC[C@H](OC(=O)N(CCCBr)N=O)CC1=CC[C@@H]1[C@@H]2CC[C@]2(C)C(=O)CC[C@@H]12 [dehydroepiandrosterone - 3β-N-(3-bromopropyl)-N-nitroso carbamate] | exhibit anti-tumor activity |  | Tumour inhibition % ([1]; 5×125 mg/kg i.p.): 39%; Lethality ([1]; 5×125 mg/kg i.p.): 0/8
C[C@]12CC[C@H](OC(=O)N(C(=O)N(CCCl)N=O)c3ccccc3)CC1=CC[C@@H]1[C@@H]2CC[C@]2(C)C(=O)CC[C@@H]12 [dehydroepiandrosterone-3β-/N^2-phenyl-N^4-(2-chloroethyl)-N^4-nitroso allophanate/] | exhibit anti-tumor activity | exhibit anti-tumor activity | 
C[C@]12CC[C@H](OC(=O)NC(=O)N(CCCl)N=O)CC1=CC[C@@H]1[C@@H]2CC[C@]2(C)C(=O)CC[C@@H]12 [dehydroepiandrosterone-3β-/N^4-(2-chloroethyl)-N^4-nitroso allophanate/] | exhibit anti-tumor activity | exhibit anti-tumor activity | 
C[C@]12CC[C@H](OC(=O)NCCCl)CC1=CC[C@@H]1[C@@H]2CC[C@]2(C)C(=O)CC[C@@H]12 [dehydroepiandrosterone-3β-N-(2-chloroethyl) carbamate, reference compound] |  |  | anti-tumor activity (Hepatoma AH 130; [5]): inactive; effect on L 1210 [3]: without effect
CN(CCCl)C(=O)O[C@H]1CC[C@@]2(C)C(=CC[C@@H]3[C@@H]2CC[C@]2(C)C(=O)CC[C@@H]32)C1 [dehydroepiandrosterone-3β-N-(2-chloroethyl)-N-methyl carbamate, reference compound] |  |  | anti-tumor activity (Hepatoma AH 130; [5]): inactive; Tumour inhibition % ([1]; 5×500 mg/kg i.p.): < 10%; Lethality ([1]; 5×500 mg/kg i.p.): 0/8
C[C@]12CC[C@H](OC(=O)N(CCF)N=O)CC1=CC[C@@H]1[C@@H]2CC[C@]2(C)C(=O)CC[C@@H]12 [dehydroepiandrosterone-3β-N-(2-fluoroethyl)-N-nitroso carbamate] | exhibit anti-tumor activity | exhibit anti-tumor activity | 
C[C@]12CC[C@H]3[C@@H](CCC4=CC(=O)CC[C@@]43C)[C@@H]1CC[C@@H]2C(=O)COC(=O)N(CCCl)N=O [deoxycorticosterone-21-N-(2-chloroethyl)-N-nitroso carbamate] | exhibit anti-tumor activity | exhibit anti-tumor activity | 
C[C@]12CCC(=O)C[C@@H]1CC[C@@H]1[C@@H]2CC[C@]2(C)[C@@H](OC(=O)N(C(=O)N(CCCl)N=O)C3CCCCC3)CC[C@@H]12 [dihydrotestosteron-17β-/N^2-cyclohexyl-N^4-(2-chloroethyl)-N^4-nitroso allophanate/] | exhibit anti-tumor activity | exhibit anti-tumor activity | 
C[C@]12CC[C@@H]3c4ccc(OC(=O)N(CCCl)N=O)cc4CC[C@H]3[C@@H]1CC[C@@H]2OC(=O)N(CCCl)N=O [estradiol-3,17β-bis/N-(2-chloroethyl)-N-nitroso carbamate/] | exhibit anti-tumor activity | exhibit anti-tumor activity | 
CCCOc1ccc(CCC(=O)O[C@H]2CC[C@H]3[C@@H]4CCc5cc(OC(=O)N(CCCl)N=O)ccc5[C@H]4CC[C@]23C)cc1 [estradiol-3-N-(2-chloroethyl)-N-nitroso carbamate-17β-(p-propoxyphenyl-propionate)] | exhibit anti-tumor activity | exhibit anti-tumor activity | 
C[C@]12CC[C@@H]3c4ccc(OC(=O)N(CCCl)N=O)cc4CC[C@H]3[C@@H]1CC[C@@H]2OP(=O)(O)O [estradiol-3-N-(2-chloroethyl)-N-nitroso carbamate-17β-dihydrogen phosphate] | exhibit anti-tumor activity | exhibit anti-tumor activity | 
C[C@]12CC[C@@H]3c4ccc(OC(=O)N(CCCl)N=O)cc4CC[C@H]3[C@@H]1CC[C@@H]2OS(=O)(=O)O [estradiol-3-N-(2-chloroethyl)-N-nitroso carbamate-17β-sodium sulphate] | exhibit anti-tumor activity | exhibit anti-tumor activity | 
CC(=O)Oc1ccc2c(c1)CC[C@@H]1[C@@H]2CC[C@]2(C)[C@@H](OC(=O)N(C(=O)N(CCCl)N=O)C3CCCCC3)CC[C@@H]12 [estradiol-3-acetate-17β-/N^2-cyclohexyl-N^4-(2-chloroethyl)-N^4-nitroso allophanate/] | exhibit anti-tumor activity | exhibit anti-tumor activity | 
C[C@]12CC[C@@H]3c4ccc(OC5CCCC5)cc4CC[C@H]3[C@@H]1CC[C@@H]2OC(=O)N(CCCl)N=O [estradiol-17β-N-(2-chloroethyl)-N-nitroso carbamate-3-cyclopentyl ether] | exhibit anti-tumor activity | exhibit anti-tumor activity | 
CC(=O)O[C@H]1CC[C@H]2[C@@H]3CCc4cc(OC(=O)N(CCCl)C(=O)N(CCCl)N=O)ccc4[C@H]3CC[C@]12C [estradiol-17β-acetate-3-/N^2,N^4-bis (2-chloroethyl)-N-^4-nitroso allophanate/] | exhibit anti-tumor activity | exhibit anti-tumor activity | 
CC(=O)Oc1ccc2c(c1)CC[C@@H]1[C@@H]2CC[C@@]2(C)[C@H]1C[C@@H](OC(C)=O)[C@@H]2OC(=O)N(C(=O)N(CCCl)N=O)C1CCCCC1 [estriol-3,16α-diacetate-17β-/N^2-cyclohexyl-N^4-(2-chloroethyl)-N^4-nitroso allophanate/] | exhibit anti-tumor activity | exhibit anti-tumor activity | 
C[C@]12CC[C@@H]3c4ccc(OC(=O)N(CCCl)N=O)cc4CC[C@H]3[C@@H]1C[C@@H](OC(=O)CCC(=O)O)[C@@H]2OC(=O)CCC(=O)O [estriol-3-N-(2-chloroethyl)-N-nitroso carbamate-16α,17β-bis-hemisuccinate] | exhibit anti-tumor activity | exhibit anti-tumor activity | 
CC(=O)Oc1ccc2c(c1)CC[C@@H]1[C@@H]2CC[C@@]2(C)[C@H]1C[C@@H](OC(=O)N(CCCl)N=O)[C@@H]2OC(=O)N(CCCl)N=O [estriol-3-acetate-16α,17β-bis-/N-(2-chloroethyl)-N-nitroso carbamate/] | exhibit anti-tumor activity | exhibit anti-tumor activity | 
CC(=O)O[C@@H]1C[C@H]2[C@@H]3CCc4cc(OC(=O)N(CCCl)N=O)ccc4[C@H]3CC[C@]2(C)[C@H]1OC(C)=O [estriol-16α,17β-diacetate-3-N-(2-chloroethyl)-N-nitroso carbamate] | exhibit anti-tumor activity | exhibit anti-tumor activity | 
C[C@]12CC[C@@H](OC(=O)N(CCCl)N=O)C[C@H]1CC[C@@H]1[C@@H]2CC[C@]2(C)C(=O)CC[C@@H]12 [etiocholanolone-3α-N-(2-chloroethyl)-N-nitroso carbamate] | exhibit anti-tumor activity | exhibit anti-tumor activity | 
C[C@]12CCC(=O)C=C1CC[C@@H]1[C@@H]2[C@@H](O)C[C@@]2(C)[C@H]1CC[C@]2(O)C(=O)COC(=O)N(CCCl)N=O [hydrocortisone-21-N-(2-chloroethyl)-N-nitroso carbamate] | exhibit anti-tumor activity | exhibit anti-tumor activity | 
C#C[C@]1(OC(=O)N(CCCl)N=O)CC[C@H]2[C@@H]3CCC4=C(CCC(=O)C4)[C@H]3CC[C@@]21C [norethynodrel-17β-N-(2-chloroethyl)-N-nitroso carbamate] | exhibit anti-tumor activity | exhibit anti-tumor activity | 
C[C@]12C=CC(=O)C=C1CC[C@@H]1[C@@H]2C(=O)C[C@@]2(C)[C@H]1CC[C@]2(O)C(=O)COC(=O)N(CCCl)N=O [prednisone-21-N-(2-chloroethyl)-N-nitroso carbamate] | exhibit anti-tumor activity | exhibit anti-tumor activity | 
C[C@]12CC[C@H]3[C@@H](CCC4=CC(=O)CC[C@@]43C)[C@@H]1CC[C@@H]2OC(=O)N(C(=O)N(CCCl)N=O)C1CCCCC1 [testosterone-17β-/N^2-cyclohexyl-N^4-(2-chloroethyl)-N^4-nitroso allophanate/] | exhibit anti-tumor activity | exhibit anti-tumor activity | 
